Laboratory results as given in patent publication US9416124B2, “Substituted 2-alkyl-1-OXO-N-phenyl-3-heteroaryl-1,2,3,4-tetrahydroisoquinoline-4-carboxamides for antimalarial therapies” (ST. JUDE CHILDREN'S RESEARCH HOSPITAL, priority 2011, dated 2016).

system: P. falciparum 3D7; experiment: P. falciparum drug susceptibility assay (3D7); assay type: cell-based, Plasmodium falciparum; details: 3D7 strain; racemate unless indicated; read-out: 3D7_EC50
Method: Parasites were grown as previously described in Mallari, J. P., Guiguemde, W. A., and Guy, R. K., Antimalarial activity of thiosemicarbazones and purine derived nitriles, Bioorg Med Chem Lett 19 (13), 3546 (2009). […] DMSO inhibitor stock solutions were pin-transferred (V&P Scientific) into the assay plate and background fluorescence was measured in both relevant channels (485 nm /535 nm, 612 nm /665 nm) in an Envision plate reader (PerkinElmer). Then 20 μl of a synchronized culture suspension (1% rings, 10% hematocrit) were added per well, thus making a final hematocrit and parasitemia of 5% and 1% respectively. Assay plates were incubated for 72 h and parasitemia was determined based on a modified protocol. (Smilkstein, M. et al., Simple and inexpensive fluorescence-based technique for high-throughput antimalarial drug screening. Antimicrob Agents Chemother 48 (5), 1803 (2004)). Briefly, 5 μl of mixed DNA dye solution in RPMI (5X SYBR Green I, 1 μM YOYO-3, 1% v/v Triton X-100, 1 mg/ml saponin) were added per well, assay plates were shaken for 30 s at 2000 rpm, incubated in the dark for 4 h, then read as previously described.

Row | EC50 [nM] | Compound
1 | 8 | N#Cc1cc(F)cc(NC(=O)C2c3ccccc3C(=O)N(CC(F)(F)F)C2c2cn[nH]c2)c1 (single isomer, unassigned; isomer d) [Example 20 d-isomer, d-N-(3-cyano-5-fluorophenyl)-1-oxo-3-(1H-pyrazol-4-yl)-2-(2,2,2-trifluoroethyl)-1,2,3,4-tetrahydroisoquinoline-4-carboxamide]

same assay, conditions: Plasmodium falciparum; 3D7 strain; racemate unless indicated; read-out: 3D7_EC50

Row | Compound | EC50 [nM]
2 | Cn1cc([C@@H]2[C@@H](C(=O)Nc3ccc(F)c(C#N)c3)c3ccccc3C(=O)N2CC(F)(F)F)cn1 (racemic) [Example 4, N-(3-cyano-4-fluorophenyl)-3-(1-methyl-1H-pyrazol-4-yl)-1-oxo-2-(2,2,2-trifluoroethyl)-1,2,3,4-tetrahydroisoquinoline-4-carboxamide] | 24
3 | Cn1cc([C@@H]2[C@@H](C(=O)Nc3cc(Cl)cc(C#N)c3)c3ccccc3C(=O)N2CC(F)(F)F)cn1 (racemic) [Example 10, N-(3-chloro-5-cyanophenyl)-3-(1-methyl-1H-pyrazol-4-yl)-1-oxo-2-(2,2,2-trifluoroethyl)-1,2,3,4-tetrahydroisoquinoline-4-carboxamide] | 6
4 | COc1ccc2c(c1)C(=O)N(CC(C)C)[C@H](c1cccnc1)[C@H]2C(=O)Nc1ccc(F)c(C#N)c1 (racemic) [Example 53, N-(3-cyano-4-fluorophenyl)-2-isobutyl-7-methoxy-1-oxo-3-(pyridin-3-yl)-1,2,3,4-tetrahydroisoquinoline-4-carboxamide] | 150
5 | CC(C)CN1C(=O)c2ccccc2[C@H](C(=O)Nc2cccc(C#N)c2)[C@H]1c1cnn(C)c1 (racemic) [Example 15, N-(3-cyanophenyl)-2-isobutyl-3-(1-methyl-1H-pyrazol-4-yl)-1-oxo-1,2,3,4-tetrahydroisoquinoline-4-carboxamide] | 36
6 | CC(C)CN1C(=O)c2ccccc2[C@H](C(=O)Nc2ccc(F)c(OC(F)(F)F)c2)[C@H]1c1cn[nH]c1 (racemic) [Example 31, N-(4-fluoro-3-(trifluoromethoxy)phenyl)-2-isobutyl-1-oxo-3-(1H-pyrazol-4-yl)-1,2,3,4-tetrahydroisoquinoline-4-carboxamide] | 13
7 | CC(C)CN1C(=O)c2ccc(F)cc2[C@H](C(=O)Nc2cc(F)cc(C#N)c2)[C@H]1c1ccc(C#N)s1 (racemic) [Example 51, N-(3-cyano-5-fluorophenyl)-3-(5-cyanothiophen-2-yl)-6-fluoro-2-isobutyl-1-oxo-1,2,3,4-tetrahydroisoquinoline-4-carboxamide] | 5
8 | CC(C)CN1C(=O)c2ccccc2[C@H](C(=O)Nc2cccc(OC(F)(F)F)c2)[C@H]1c1cn[nH]c1 (racemic) [Example 25, 2-isobutyl-1-oxo-3-(1H-pyrazol-4-yl)-N-(3-(trifluoromethoxy)phenyl)-1,2,3,4-tetrahydroisoquinoline-4-carboxamide] | 11
9 | O=C(Nc1ccc(F)c(OC(F)(F)F)c1)[C@H]1c2ccccc2C(=O)N(CC(F)(F)F)[C@@H]1c1cccnc1 (racemic) [Example 36, N-(4-fluoro-3-(trifluoromethoxy)phenyl)-1-oxo-3-(pyridin-3-yl)-2-(2,2,2-trifluoroethyl)-1,2,3,4-tetrahydroisoquinoline-4-carboxamide] | 89
10 | N#Cc1cc(NC(=O)[C@H]2c3cc(F)c(F)cc3C(=O)N(CC(F)(F)F)[C@@H]2c2cn[nH]c2)ccc1F (racemic) [Example 59] | 7
11 | CC(C)CN1C(=O)c2cc(F)ccc2[C@H](C(=O)Nc2cc(Cl)cc(C#N)c2)[C@H]1c1cnn(C)c1 (racemic) [Example 46, N-(3-chloro-5-cyanophenyl)-7-fluoro-2-isobutyl-3-(1-methyl-1H-pyrazol-4-yl)-1-oxo-1,2,3,4-tetrahydroisoquinoline-4-carboxamide] | 3
12 | O=C(Nc1cccc(OC(F)(F)F)c1)[C@H]1c2ccccc2C(=O)N(CC(F)(F)F)[C@@H]1c1cn[nH]c1 (racemic) [Example 26, 1-oxo-3-(1H-pyrazol-4-yl)-2-(2,2,2-trifluorocthyl)-N-(3-(trifluoromethoxy)phenyl)-1,2,3,4-tetrahydroisoquinoline-4-carboxamide] | 19
13 | CC(C)CN1C(=O)c2ccc(F)cc2[C@H](C(=O)Nc2cc(F)cc(C#N)c2)[C@H]1c1cnn(C)c1 (racemic) [Example 48, N-(3-cyano-5-fluorophenyl)-6-fluoro-2-isobutyl-3-(1-methyl-1H-pyrazol-4-yl)-1-oxo-1,2,3,4-tetrahydroisoquinoline-4-carboxamide] | 19
14 | CC(C)CN1C(=O)c2ccccc2[C@H](C(=O)Nc2cc(Cl)cc(C#N)c2)[C@H]1c1cccnc1 (racemic) [Example 11, N-(3-chloro-5-cyanophenyl)-2-isobutyl-1-oxo-3-(pyridin-3-yl)-1,2,3,4-tetrahydroisoquinoline-4-carboxamide] | 20
15 | CC(C)CN1C(=O)c2ccccc2[C@H](C(=O)Nc2ccc(F)c(OC(F)(F)F)c2)[C@H]1c1cnn(C)c1 (racemic) [Example 33, N-(4-fluoro-3-(trifluoromethoxy)phenyl)-2-isobutyl-3-(1-methyl-1H-pyrazol-4-yl)-1-oxo-1,2,3,4-tetrahydroisoquinoline-4-carboxamide] | 17
16 | CC(C)CN1C(=O)c2ccccc2[C@H](C(=O)Nc2cccc(C#N)c2)[C@H]1c1cccnc1 (racemic) [Example 17, N-(3-cyanophenyl)-2-isobutyl-1-oxo-3-(pyridin-3-yl)-1,2,3,4-tetrahydroisoquinoline-4-carboxamide] | 58
17 | O=C(Nc1cc(F)cc(OC(F)(F)F)c1)[C@H]1c2ccccc2C(=O)N(CC(F)(F)F)[C@@H]1c1cn[nH]c1 (racemic) [Example 38, N-(3-fluoro-5-(trifluoromethoxy)phenyl)-1-oxo-3-(1H-pyrazol-4-yl)-2-(2,2,2-trifluoroethyl)-1,2,3,4-tetrahydroisoquinoline-4-carboxamide] | 61

Now from value to compound:

Row | EC50 [nM] | Compound
18 | 54 | N#Cc1cc(NC(=O)[C@H]2c3ccccc3C(=O)N(CC(F)(F)F)[C@@H]2c2cccnc2)ccc1F (racemic) [Example 6, N-(3-cyano-4-fluorophenyl)-1-oxo-3-(pyridin-3-yl)-2-(2,2,2-trifluoroethyl)-1,2,3,4-tetrahydroisoquinoline-4-carboxamide]
19 | 63 | CC(C)CN1C(=O)c2ccccc2[C@H](C(=O)Nc2ccc(F)c(OC(F)(F)F)c2)[C@H]1c1cccnc1 (racemic) [Example 35, N-(4-fluoro-3-(trifluoromethoxy)phenyl)-2-isobutyl-1-oxo-3-(pyridin-3-yl)-1,2,3,4-tetrahydroisoquinoline-4-carboxamide]
20 | 21 | CC(C)CN1C(=O)c2ccccc2[C@H](C(=O)Nc2cc(F)cc(C#N)c2)[C@H]1c1cnn(C)c1 (racemic) [Example 21, N-(3-cyano-5-fluorophenyl)-2-isobutyl-3-(1-methyl-1H-pyrazol-4-yl)-1-oxo-1,2,3,4-tetrahydroisoquinoline-4-carboxamide]
21 | 9 | N#Cc1cc(F)cc(NC(=O)[C@H]2c3ccccc3C(=O)N(CC(F)(F)F)[C@@H]2c2cn[nH]c2)c1 (racemic) [Example 20, N-(3-cyano-5-fluorophenyl)-1-oxo-3-(1H-pyrazol-4-yl)-2-(2,2,2-trifluoroethyl)-1,2,3,4-tetrahydroisoquinoline-4-carboxamide]
22 | 36 | N#Cc1cc(Cl)cc(NC(=O)[C@H]2c3ccccc3C(=O)N(CC(F)(F)F)[C@@H]2c2cccnc2)c1 (racemic) [Example 12, N-(3-chloro-5-cyanophenyl)-1-oxo-3-(pyridin-3-yl)-2-(2,2,2-trifluoroethyl)-1,2,3,4-tetrahydroisoquinoline-4-carboxamide]
23 | 25 | CC(C)CN1C(=O)c2ccccc2[C@H](C(=O)Nc2cccc(OC(F)(F)F)c2)[C@H]1c1cccnc1 (racemic) [Example 29, 2-isobutyl-1-oxo-3-(pyridin-3-yl)-N-(3-(trifluoromethoxy)phenyl)-1,2,3,4-tetrahydroisoquinoline-4-carboxamide]
24 | 22 | O=C(Nc1ccc(F)c(OC(F)(F)F)c1)[C@H]1c2ccccc2C(=O)N(CC(F)(F)F)[C@@H]1c1cn[nH]c1 (racemic) [Example 32, N-(4-fluoro-3-(trifluoromethoxy)phenyl)-1-oxo-3-(1H-pyrazol-4-yl)-2-(2,2,2-trifluoroethyl)-1,2,3,4-tetrahydroisoquinoline-4-carboxamide]
25 | 20 | CC(C)CN1C(=O)c2cc(F)ccc2[C@H](C(=O)Nc2ccc(F)c(C#N)c2)[C@H]1c1cnn(C)c1 (racemic) [Example 45, N-(3-cyano-4-fluorophenyl)-7-fluoro-2-isobutyl-3-(1-methyl-1H-pyrazol-4-yl)-1-oxo-1,2,3,4-tetrahydroisoquinoline-4-carboxamide]

same assay, conditions: separated enantiomers, assayed as described in 4a; listed as 2 l; read-out: Potency (nM, 3D7 strain)

Row | EC50 [nM] | Compound
26 | 303 | N#Cc1cc(NC(=O)C2c3ccccc3C(=O)N(CC(F)(F)F)C2c2cn[nH]c2)ccc1F (single isomer, unassigned) [Example 2 l-isomer]

same assay, conditions: separated enantiomers, assayed as described in 4a; listed as 6 l; read-out: Potency (nM, 3D7 strain)

Row | EC50 [nM] | Compound
27 | 477 | N#Cc1cc(NC(=O)C2c3ccccc3C(=O)N(CC(F)(F)F)C2c2cccnc2)ccc1F (single isomer, unassigned) [Example 6 l-isomer, l-N-(3-cyano-4-fluoro)-1-Oxo-3-pyridin-3-yl-2-(2,2,2-trifluoro-ethyl)-1,2,3,4-tetrahydro isoquinoline-4-carboxamide]

same assay, conditions: separated enantiomers, assayed as described in 4a; read-out: Potency (nM, 3D7 strain)

Row | EC50 [nM] | Compound
28 | 11 | N#Cc1cc(F)cc(NC(=O)C2c3ccccc3C(=O)N(CC(F)(F)F)C2c2cn[nH]c2)c1 (single isomer, unassigned; isomer d) [Example 20 d-isomer, d-N-(3-cyano-5-fluorophenyl)-1-oxo-3-(1H-pyrazol-4-yl)-2-(2,2,2-trifluoroethyl)-1,2,3,4-tetrahydroisoquinoline-4-carboxamide]
